For orientation: pIC50 means the IC50 on a negative log10 scale, so that one unit is a factor of ten. Higher therefore signals a low IC50.

This experiment has as its target Acetylcholinesterase (Torpedo californica, UniProt P04058).

pIC50: −log10 of the molar value.

Acetylcholinesterase, sequence (P04058 whole entry): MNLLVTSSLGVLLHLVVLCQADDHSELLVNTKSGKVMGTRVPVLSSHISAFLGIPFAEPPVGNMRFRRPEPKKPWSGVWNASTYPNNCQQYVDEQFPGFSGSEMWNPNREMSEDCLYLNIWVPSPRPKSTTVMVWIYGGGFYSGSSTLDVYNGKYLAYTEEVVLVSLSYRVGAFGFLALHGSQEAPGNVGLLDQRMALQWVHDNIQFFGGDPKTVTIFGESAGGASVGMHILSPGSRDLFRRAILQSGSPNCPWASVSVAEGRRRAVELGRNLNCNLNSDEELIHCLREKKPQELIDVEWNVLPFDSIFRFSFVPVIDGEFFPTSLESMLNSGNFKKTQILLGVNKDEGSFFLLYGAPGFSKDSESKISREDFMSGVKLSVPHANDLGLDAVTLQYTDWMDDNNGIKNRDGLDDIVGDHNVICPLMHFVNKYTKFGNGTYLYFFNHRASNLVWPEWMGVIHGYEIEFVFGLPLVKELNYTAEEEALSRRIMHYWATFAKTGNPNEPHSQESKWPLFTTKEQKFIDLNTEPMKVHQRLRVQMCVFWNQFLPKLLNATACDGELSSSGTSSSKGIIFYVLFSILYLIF
Description: Inhibition of activity against Torpedo Ray acetylcholinesterase.

As to `OC(O)(CCCCCNc1c2c(nc3cccc(Cl)c13)CCCCC2)C(F)(F)F`, the pIC50 was 7.44.
In the case of `Nc1c2c(nc3cccc(Cl)c13)CCCCC2` it was 8.62.
The same measure for `CCOC(=O)c1c(C)nc2cccc(F)c2c1N`: 5.59.
The same measure for `Cc1nc2cccc(Cl)c2c(N)c1CNC1(C(F)(F)F)CCC(=O)O1` (stereo unspecified): 5.14; for `Cc1nc2ccccc2c(N)c1COCc1cccc(C(=O)C(F)(F)F)c1`: 8.52.
In the case of `Cc1nc2cccc(F)c2c(N)c1CSC1(C(F)(F)F)CCCO1` (stereo unspecified), the negative-log IC50 (pIC50) is 7.74.
Compound `Cc1nc2cccc(F)c2c(N)c1CSCc1cccc(C(=O)C(F)(F)F)c1` gave a negative-log IC50 (pIC50) of 8.52.
In the case of `Cc1nc2cccc(Cl)c2c(N)c1COCc1cccc(C(=O)C(F)(F)F)c1` it was 8.29; in that of `CC(=O)c1cccc(CSCc2c(C)nc3cccc(F)c3c2N)c1`, 4.82.
In the case of `O=C(c1cccc(CBr)c1)C(F)(F)F` it was 6.44.
The same measure for `Cc1nc2cccc(F)c2c(N)c1CNC1(C(F)(F)F)CCC(=O)O1` (stereo unspecified): 4.85; for `O=C(c1ccc(CNc2c3c(nc4cccc(Cl)c24)CCCCC3)s1)C(F)(F)F`: 7.92; for `Cc1nc2cccc(F)c2c(N)c1COCc1ccccc1`: 5.70.
`Cc1nc2cccc(F)c2c(N)c1CN` showed a negative logarithm of the IC50 (pIC50) of 5.72.
Compound `Cc1nc2cccc(F)c2c(N)c1CSCc1cccc(C(O)C(F)(F)F)c1` (stereo unspecified) had a pIC50 of 4.96.
`Cc1nc2cccc(F)c2c(N)c1COCc1cccc(C(=O)C(F)(F)F)c1` had a pIC50 of 8.42.
